Series [1] can be described thus: Cytotoxicity (resazurin) against cultured HaCaT noncancerous cells. How it is done:
(§1) Cell death was measured using resazurin, with 0.1% (v/v) Triton X‐100 as a control for 100% cell death. Data points are expressed as mean ± SD for at least two biological replicates. Dose response curves were fitted using [inhibitor] versus response with variable slope, Graphpad Prism v10. […] RBC lysis was determined by measuring released hemoglobin, with 0.1% (v/v) Triton X‐100 as a control for 100% cell lysis. Melittin was included as a membranolytic control. Data points are expressed as mean ± SD for two technical replicates. Dose response curves were fitted using [inhibitor] versus response with variable slope, Graphpad Prism v10. […] CC50 values are expressed as mean (SEM). […]
(§2) HaCaT cells were grown in DMEM medium and HT144 cells were grown in RPMI medium supplemented with 2 mM L-glutamine and 10 mM sodium pyruvate. Media were supplemented with 10% (v/v) fetal bovine serum, 100 units/mL of penicillin and […] of streptomycin. Flasks of cultured cells were maintained in a humidified incubator (37 °C, 5% CO2) and passaged every 2–3 days to maintain cultures between 20–90% confluence. Cell line identity was verified by comparing […]
(§3) STR profiles of the cell lines against database entries from the DSMZ-German collection of microorganisms and cell cultures, GmBH https://celldive.dsmz.de/str/browse.
(§4) Toxicity to the HT144 and HaCaT cell lines was tested following peptide treatment by measuring the metabolism of resazurin into fluorescent resorufin. The assays were performed with 5000 cells/well (96-well plate) in serum free media. Cells were incubated with serially diluted peptides, PDCs or drugs for 72 h or 24 h (37 °C, 5% CO2). PBS and 0.1% (v/v) Triton X-100 were included as controls for 0% and 100% toxicity. Resazurin was added at 0.02% (w/v) final concentration 2 h prior to the assay end point. Fluorescence (λex = 560 nm, λem = 585 nm) was measured using a Tecan infinite M1000Pro multiplate reader. Percentage cytotoxicity was calculated relative to 0% and 100% controls.
(§5) Dose-response curves were fitted and CC50 values were determined using [inhibitor] vs response with four parameters with the top constrained to 100% (GraphPad Prism version 10.0.2). Data was collected as three biological replicates, with experiments conducted on different days.
(§6) Red blood cell (RBC) lysis
(§7) Human RBCs and serum were obtained from healthy volunteers via the Red Cross Lifeblood, Brisbane, Australia. RBCs were washed three times with PBS and stored in culture medium (RPMI

For series [2], the system named is HaCaT (noncancerous) cells. The description is as above. To be noted: read-out: CC50 HaCaT; 72 h incubation, resazurin; mean (SEM). How it is done:
as §1, §2, §3, §4, §5, §6, §7

Another series relates to human RBCs. In words: Red blood cell (RBC) lysis, released hemoglobin. As to conditions: red cells of human, 72 h. The protocol: as §1, §6
Human RBCs and serum were obtained from healthy volunteers via the Red Cross Lifeblood,
Brisbane, Australia. RBCs were washed three times with PBS and stored in culture medium (RPMI

The test system of another series is HT144 cells. In words: Compound internalization/association with HT144 cells (TOF-MS of cell extracts). The series is classed as cell-based. To be noted: 4 μM, 1 h. How it is done:
FIGURE 4 (A) Membrane permeability and cellular uptake of PDCs, scaffold peptides, and CPT. Compounds were added to PAMPA wells (4 μM) and incubated for 4 h. Supernatant from apical and basolateral sides of the membrane were collected and analyzed using LC–MS. The amount in the combined soluble fractions was compared to the starting amount to determine % recovery, and the apparent permeability (Papp) was calculated as before (Sevin et al. [2013]). Data is expressed as mean ± SD from a single experiment with three technical replicates. (B) Internalization/cell membrane association of PDCs 12–14 and PDIP with HT144 cells. […] The relative amount of internalized peptide or PDC was determined by integrating area under the curve (AUC) for the [M + 6H]^6+ m/z peak (for the intact mass) using time of flight–mass spectrometry (see Figure S2). […] Data is expressed as mean ± SD from a single experiment with three technical replicates for each treatment and control and was analyzed with ANOVA (Tukey multiple comparisons; **p < 0.01, *p < 0.05). […] Data is expressed as mean ± SD from a single experiment with three technical replicates for each treatment and was analyzed with ANOVA (Fisher multiple paired comparisons; **p < 0.01, *p < 0.05). […]
The area under the curve (AUC) for the [M+6H]6+ m/z peak for each compound was determined using Sciex […]

Positions of bridges follow the written chain, without caps; N, C: chain ends. Residues, ends and D or L forms follow the SMILES beside them.

For the molecule `CC[C@H](C)[C@@H]1NC(=O)[C@H](CCCCN)NC(=O)[C@H](CCCCN)NC(=O)[C@H](Cc2ccc(O)cc2)NC(=O)[C@H](CC(C)C)NC(=O)[C@@H]2CCCN2C(=O)CNC(=O)CNC(=O)[C@@H](NC(=O)CN)CSSC[C@@H](C(=O)N[C@@H](CCC(=O)O)C(=O)N[C@@H](CO)C(N)=O)NC(=O)[C@H](CC(C)C)NC(=O)[C@H](CCCCN)NC(=O)[C@H](CCCCN)NC(=O)[C@H]([C@@H](C)CC)NC(=O)[C@H]([C@@H](C)CC)NC(=O)[C@H](CCCCN)NC(=O)[C@H](CCCCN)NC(=O)[C@H](Cc2ccc(O)cc2)NC(=O)[C@H](CC(C)C)NC(=O)[C@@H]2CCCN2C(=O)[C@H](C)NC(=O)CNC(=O)CNC(=O)[C@H](CO)NC(=O)CNC(=O)CNC(=O)[C@H](CO)NC(=O)[C@H](CCC(=O)O)NC(=O)[C@H](CC(C)C)NC(=O)[C@H](CC(C)C)NC(=O)[C@H](CCCCN)NC(=O)[C@H](CCCCN)NC(=O)[C@H]([C@@H](C)CC)NC1=O` [PDIP, reference compound] (H-GCGGPLYKKIIKKLLESGGSGGAPLYKKIIKKLCES-NH2; disulfide 2-34; N-terminus assumed), the half-maximal cytotoxic concentration (CC50) was greater than 32 µM in series [1] and no less than 32 µM in series [2]. Moreover, in the series with human RBCs, the “HC10 (minimal hemolytic concentration) RBC” value is on record as ~ 32 μM. For the same molecule, the “recovered intact conjugate/peptide (percentage of internalized compound)” value in the series on HT144 cells is 9%.

Values taken from publication PMC11747586, “Synthesis and Investigation of Peptide–Drug Conjugates Comprising Camptothecin and a Human Protein‐Derived Cell‐Penetrating Peptide” (Chemical Biology & Drug Design, 2025).
